Where two headings read alike, the source gives them in different places. Bounds are passed on as bounds.

The values that follow come from patent publication US20070196272A1, “ORAL DELIVERY OF THERAPEUTIC AGENTS USING TIGHT JUNCTION AGONISTS” (priority 2006, published 2007).

One data set is described as follows: in vitro. To be noted: human, Caco-2.
For data set [1] the following is noted: AT-1002 10, 20 and 40 mg/kg, PI, BC 0.05% w/v, ID.
Protocol: The effect of AT-1002 on the transport of [^14C]-innulin across the intestine was examined in mice. [^14C]-innulin (30 μCi/kg) was co-administered with AT-1002 (10, 20 and 40 mg/kg), protease inhibitors (i.e. bestatine (30 mg/kg) and E-64 (10 mg/kg)) and benzalkonium chloride (0.05% w/v) to rats (n=4-5 per group) via the intra-duodenal administration.
The conditions of data set [2]: AT-1002 10 mg/kg with bestatine 30 mg/kg and E-64 10 mg/kg, oral, each sampling time.
Protocol: The ability of AT-1002 on the transport of [^14C]-mannitol across the intestinal membrane was examined in mice. [^14C]-mannitol (30 μCi/kg) was co-administered with AT-1002 (10 mg/kg) and protease inhibitors (i.e. bestatine (30 mg/kg) and E-64 (10 mg/kg)) to mice (n=3 per group) via the oral administration.
The conditions of data set [3]: for intestinal transport of [^3H]-cyclosporin A, enhancement: AT-1002 40 mg/kg with PI and BC 0.1% w/v, ID.
Description: Male Sprague-Dawley rats (230-280 g) were purchased from Harlan Laboratories (Indianapolis, Ind.). Rats were housed individually in cages and allowed to acclimate at least two days after arrival. Rats were fed Rat Chow and water ad libitum and maintained on a 12-h light: 12-h dark cycle. The protocol for the animal studies was approved by the School of Pharmacy, University of Maryland IACUC.
Male Sprague-Dawley rats were fasted overnight prior to and during the study with free access to water. Prior to the administration of AT1002, the rats were anesthetized with an intra-peritoneal injection of ketamine (80 mg/kg) and xylazine (12 mg/kg), and the duodenum and jugular vein were cannulated. […] Blood samples (250 μl) were drawn via the jugular cannula into heparinized syringes at 0 (actual time point was −5 min before the administration), 20, 60, and 120 min into polypropylene tubes, centrifuged (13,000 rpm for 10 min) immediately and plasma was obtained. Scintillation cocktail was added and samples were analyzed for radioactivity by Beckman Coulter LS 6500 multi-purpose Scintillation counter.
The area under the plasma concentration-time curve (AUC0-t) was calculated using the linear trapezoidal rule. The highest observable concentration was defined as maximum concentration (Cmax). The percent enhancement ratio, ER (%), for the pharmacokinetic parameters was calculated from the formula, [formula]
[^3H]-cyclosporin (120 μCi/kg) was co-administered with AT-1002 (40 mg/kg), protease inhibitors (i.e. bestatine (30 mg/kg) and E-64 (10 mg/kg)) and benzalkonium chloride (0.1% w/v) to rats (n=5 per group) via the intra-duodenal administration.
The conditions of data set [4]: PI, BC 0.05% w/v, ID, not statistically enhanced.
Data set [5] concerns intercellular tight junctions. Description: Ussing chamber model. From the text: Our recent observation that zonulin may represent a new member of the serine protease family whose target receptor seems to be a variant of the protease activated receptor (PAR)2, lead us to the observation that the first six amino acids following V. cholerae-mediated ZOT cleavage (AA 289-295 [FCIGRL]) closely resembles the active motif of PAR2 (SLIGRL). Therefore, the six-mer synthetic peptide FCIGRL (that we named AT1002) was generated.

Data set [6] deals with Caco-2 cell monolayers. To be noted: AT1002 5 mM.
Protocol: (§1) Caco-2 cells, a human colon adenocarcinoma cell line, were grown as monolayers for 21 days in Dulbecco's Modified Eagle's medium (1×) containing 10% fetal bovine serum, 1% non-essential amino acid solution, 1% penicillin-streptomycin and 2% glutamine at 37° C. in an atmosphere of 5% CO2 and 90% relative humidity. Caco-2 cells from passage numbers of 51 to 52 were seeded on permeable polycarbonate inserts (1 cm^2, 0.4 μm pore size) in 12 Transwell plates at a density of 80,000 cells/cm^2. The inserts were fed with media every other day until they were used for experiments 21 days after the initial seeding. The integrity of the cell monolayers was evaluated by measuring the transepithelial electrical resistance (TEER) values before the study using a Millicell®-ERS meter (Millipore Corp., Bedford, Mass.) with chopstick electrodes. […] The cell monolayers were washed twice with PBS prior to the transport experiments. After the wash, the plates were incubated for 30 min at 37° C., and the integrity of the cell monolayers was evaluated by measurement of TEER. The cell inserts were used in transport experiments when the TEER values reached >300 Ωcm^2.
(§2) The insert was moved to a well containing fresh PBS every 10 min for 40 min.
(§3) Papp was calculated according to the following equation: [formula] […]
(§4) The percent enhancement ratio, ER (%), for the Papp was calculated from the formula, [formula] […]
The target in the next data set is T1, PAR-2 (Mus musculus, UniProt P55086).
T1 construct: Intracolonic infusion of a 5 μg dose of the PAR-2 agonist, SLIGRL; host or cells: colon in vivo (endogenous receptor)
T1 sequence (P55086 26-399): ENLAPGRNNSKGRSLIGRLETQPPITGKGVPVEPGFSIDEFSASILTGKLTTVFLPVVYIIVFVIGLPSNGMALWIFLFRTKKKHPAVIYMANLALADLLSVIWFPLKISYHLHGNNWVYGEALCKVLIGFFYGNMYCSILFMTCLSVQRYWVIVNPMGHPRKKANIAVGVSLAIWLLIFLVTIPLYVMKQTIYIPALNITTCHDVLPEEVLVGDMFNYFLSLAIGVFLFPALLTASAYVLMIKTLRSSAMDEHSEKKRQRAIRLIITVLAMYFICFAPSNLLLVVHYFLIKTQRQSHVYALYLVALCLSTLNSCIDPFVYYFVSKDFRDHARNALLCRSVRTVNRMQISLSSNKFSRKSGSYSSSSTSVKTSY
To be noted: intracolonic infusion, 5 μg dose; cited from earlier work.

For data set [7] the following is noted: ZOT 4.4×10^−10 mol/kg; cited from earlier work.
Data set [8] concerns Caco-2 cell monolayers. To be noted: ZOT 0.22 to 0.89×10^−10 mol/ml; as seen with paclitaxel; cited from earlier work.
The conditions of data set [9]: as seen with CsA after metabolic protection; cited from earlier work.

Protocol for in vitro: as §1, §2, §3, §4

As usually defined, the Papp is a coefficient for how fast a substance crosses the barrier. High values mean fast passage, low ones slow passage. In the case of `OC[C@@H](O)[C@@H](O)[C@H](O)[C@H](O)CO` [Mannitol], the apparent permeability coefficient (Papp) at 0.5 μCi/ml in “in vitro” came to 0.686 ± 0.057 ×10⁻⁶ cm/s.

Turning to H-FCIGRL-OH [AT1002, H—FCIGRL-OH], in data set [1], the “intestinal membrane transport of [^14C]-innulin” value is “not enhanced”. Moreover, the “intestinal membrane transport of marker” value in data set [2] is “not enhanced”. Further, the “intestinal transport of [^3H]-cyclosporin A, enhancement” value worked out at 1.78 fold in data set [3] (20 min) and 1.55 fold in data set [3] (60 min). In addition, the “change in plasma concentration of CsA between 10 mg/kg and 40 mg/kg of AT1002” value in data set [3] (each time point) was “No statistically significant change”. Moreover, the “in vivo oral absorption of CsA” value in data set [3] (in the presence of PI) was “significantly increased”. Also, the “intestinal membrane transport of [^14C]-mannitol, increase” value in [4] (AT-1002 10 mg/kg) worked out at 1.43 fold; in data set [4] (AT-1002 20 mg/kg), 1.24 fold; in data set [4] (AT-1002 30 mg/kg), 1.81 fold. The “permeating effect on intercellular tight junctions” value in [5] is “retained the ZOT permeating effect”. Further, the “CsA transport across Caco-2 cell monolayers, significance vs control” value with Caco-2 cell monolayers [6] was “No significant increases”.

With SLIGRL, the “increase in the paracellular permeability of [^51C]-EDTA” value at PAR-2 is 2 fold.

Take “ZOT: 44.8 kDa protein (399 amino acids) of Vibrio cholerae that reversibly opens tight junctions”: the “bioavailability of oral insulin / serum glucose lowering” value in data set [7] is on record as “sufficient to lower serum glucose concentrations to levels comparable to those obtained after parenteral injection”. In the data set on Caco-2 cell monolayers [8], the “transport enhancement across Caco-2 cell monolayers” value is on record as “up to 30 fold”.

On to “ΔG: 12 kDa fragment (AA 265-399) of ZOT, biologically active fragment”, for which, in data set [9], the “increase in AUC” value is not above 50 fold and the “increase in Cmax” value was “up to 57 fold”.
